Results taken from patent US12479850B2, “Compound having Axl and c-Met kinase inhibitory activity, preparation thereof and application thereof” (Shanghai Institute of Materia Medica, Chinese Academy of …, priority 2019, dated 2025).

What was measured:
BaF3-TEL-AXL cells = experiment: BaF3-TEL-AXL cell proliferation assay (CCK-8); format: cell-based; conditions: 72 hours, read-out: IC50 value on BaF3-TEL-AXL cell proliferation inhibition
Description: 1. BaF3-TEL-AXL Cell Proliferation Effect Assay
TEL-AXL fusion protein in BaF3-TEL-AXL cells was expressed in the cytoplasm and was an Axl-dependent sensitive cell line.
The inhibitory effect of the compound on the proliferation of BaF3-TEL-AXL cells was detected by the CCK-8 Cell Counting Kit (Dojindo). The specific steps were as follows: the BaF3-TEL-AXL cells in the logarithmic growth phase were inoculated into the 96-well culture plate at a appropriate density, after being cultured overnight, different concentrations of compounds were added for 72 hours, and a solvent control group (negative control) was set. After the compound had acted on the cells for 72 hours, the effect of the compound on cell proliferation was detected by CCK-8 cell counting kit (Dojindo), 10 μL CCK-8 reagent was added to each well, placed in an incubator at 37° C. for 2-4 hours, and the full wavelength microplate reader SpectraMax 190 was used to read, and the measurement wavelength was 450 nm.
The inhibition rate of the compound on the growth of tumor cells was calculated by the following formula (%): Inhibition rate (%)=(OD of control well−OD of administration well)/OD of control well×100%

MKN45 cells = experiment: MKN45 cell proliferation assay (SRB); format: cell-based; conditions: Homo sapiens, MKN-45, 72 hours, read-out: IC50 value of MKN45 cell proliferation inhibition
Description: 2. MKN45 Cell Proliferation Effect Assay
MKN45 is a gastric cancer cell line. MET gene amplification leads to continuous activation of Met cell line, which is a c-Met-dependent tumor cell line.
The inhibitory effect of the compound on the proliferation of MKN45 cells was detected by sulforhodamine B (SRB) protein staining method. The specific steps were as follows: MKN45 cells in the logarithmic growth phase are inoculated into a 96-well culture plate at an appropriate density. After being cultured overnight, compounds of different concentrations were added for 72 hours. Three duplicate wells for each concentration, and a solvent control group (Negative control) were set. After the action was over, the culture solution was discarded, 10% (w/v) trichloroacetic acid (100 μL/well) was added, and fixed at 4° C. for 1 hour, then washed with distilled water for five times. After drying at room temperature, 100 μL of SRB solution was added to each well, incubated and dyed at room temperature for 15 min, washed off the unbound SRB with 1% glacial acetic acid. After drying at room temperature, 10 mM Tris solution was added to each well, and full wavelength microplate SpectraMax 190 was used to test OD value at the wavelength of 515 nm. […]

[1] = target: T1, Axl kinase domain recombinant protein (Homo sapiens, UniProt P30530); experiment: ELISA kinase activity assay, Axl
T1 sequence (P30530 536-807 limits assumed): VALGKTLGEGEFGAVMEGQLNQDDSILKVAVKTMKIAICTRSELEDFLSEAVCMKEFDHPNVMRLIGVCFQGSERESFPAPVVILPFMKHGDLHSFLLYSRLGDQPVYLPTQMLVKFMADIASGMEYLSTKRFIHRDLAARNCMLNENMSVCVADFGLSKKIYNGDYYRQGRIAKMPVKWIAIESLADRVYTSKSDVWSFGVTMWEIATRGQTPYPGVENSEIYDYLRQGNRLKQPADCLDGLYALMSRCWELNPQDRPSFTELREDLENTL

[2] = target: c-Met kinase domain recombinant protein (Homo sapiens, UniProt P08581); experiment: ELISA kinase activity assay, c-Met
c-Met kinase domain recombinant protein, sequence (P08581 1078-1345 limits assumed): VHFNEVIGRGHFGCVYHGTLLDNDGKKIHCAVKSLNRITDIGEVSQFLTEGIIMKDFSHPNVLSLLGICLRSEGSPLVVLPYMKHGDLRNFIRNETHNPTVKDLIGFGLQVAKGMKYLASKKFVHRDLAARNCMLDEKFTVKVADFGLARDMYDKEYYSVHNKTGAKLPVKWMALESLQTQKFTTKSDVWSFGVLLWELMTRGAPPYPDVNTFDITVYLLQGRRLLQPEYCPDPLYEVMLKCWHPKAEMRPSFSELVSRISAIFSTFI

IC50 (BaF3-TEL-AXL cells) [nM]	IC50 (MKN45 cells) [nM]	IC50 [1] [nM]	IC50 [2] [nM]	SMILES
< 10	< 100	< 10	< 10	CC(C)n1cc(C(=O)Nc2ccc(Oc3ccnc4[nH]ccc34)c(F)c2)c(=O)n(-c2ccc(F)cc2)c1=O [No. 41, N-(4-((1H-pyrrolo[2,3-b]pyridin-4-yl)oxy)-3-fluorophenyl)-3-(4-fluorophenyl)-1-isopropyl-2,4-dioxo-1,2,3,4-tetrahydropyrimidin-5-carboxamide]
< 10	< 100	< 10	10 to 100	CC(C)n1cc(C(=O)Nc2ccc(Oc3cc4cnn(C)c4cc3-c3cn[nH]c3)c(F)c2)c(=O)n(-c2ccc(F)cc2)c1=O [No. 50, N-(3-fluoro-4-((1-methyl-6-(1H-pyrazol-4-yl)-1H-indazol-5-yl)oxy)phenyl)-3-(4-fluorophenyl)-1-isopropyl-2,4-dioxo-1,2,3,4-tetrahydropyrimidin-5-carboxamide]
–	–	10 to 100	10 to 100	CC(C)n1nc(C(=O)Nc2ccc(Oc3ccnc(-c4cnn(C)c4)c3)cc2)c(=O)n(-c2ccc(F)cc2)c1=O [No. 23, 4-(4-fluorophenyl)-2-isopropyl-N-(4-((2-(1-methyl-1H-pyrazol-4-yl)pyridin-4-yl)oxy)phenyl)-3,5-dioxo-2,3,4,5-tetrahydro-1,2,4-triazin-6-carboxamide]
–	–	< 10	< 10	Cn1cc(-c2cc(Oc3ccc(NC(=O)c4cn(C)c(=O)n(-c5ccc(F)cc5)c4=O)cc3F)ccn2)cn1 [No. 1, N-(3-fluoro-4-((2-(1-methyl-1H-pyrazol-4-yl)pyridin-4-yl)oxy)phenyl)-3-(4-fluorophenyl)-1-methyl-2,4-dioxo-1,2,3,4-tetrahydropyrimidin-5-carboxamide]
–	–	> 100	> 100	CC(C)n1cc(C(=O)Nc2ccc(-c3cc(-c4cn[nH]c4)cnc3N)c(F)c2)c(=O)n(-c2ccc(F)cc2)c1=O [No. 40, N-(4-(2-amino-5-(1H-pyrazol-4-yl)pyridin-3-yl)-3-fluorophenyl)-3-(4-fluorophenyl)-1-isopropyl-2,4-dioxo-1,2,3,4-tetrahydropyrimidin-5-carboxamide]
–	–	< 10	< 10	Cc1ccc(-n2c(=O)c(C(=O)Nc3ccc(Oc4ccnc(-c5cnn(C)c5)c4)c(F)c3)cn(C(C)C)c2=O)cc1 [No. 15, N-(3-fluoro-4-((2-(1-methyl-1H-pyrazol-4-yl)pyridin-4-yl)oxy)phenyl)-1-isopropyl-2,4-dioxo-3-p-tolyl-1,2,3,4-tetrahydropyrimidin-5-carboxamide]
–	–	< 10	< 10	Cn1cc(-c2cc(Oc3ccc(NC(=O)c4cn(C5CCCC5)c(=O)n(-c5ccc(F)cc5)c4=O)cc3F)ccn2)cn1 [No. 11, 1-cyclopentyl-N-(3-fluoro-4-((2-(1-methyl-1H-pyrazol-4-yl)pyridin-4-yl)oxy)phenyl)-3-(4-fluorophenyl)-2,4-dioxo-1,2,3,4-tetrahydropyrimidin-5-carboxamide]
–	–	< 10	< 10	CC(C)n1cc(C(=O)Nc2ccc(Oc3ccnc(-c4cnn(C)c4)c3)c(F)c2)c(=O)n(-c2cccc(F)c2)c1=O [No. 17, N-(3-fluoro-4-((2-(1-methyl-1H-pyrazol-4-yl)pyridin-4-yl)oxy)phenyl)-3-(3-fluorophenyl)-1-isopropyl-2,4-dioxo-1,2,3,4-tetrahydropyrimidin-5-carboxamide]
